One data set concerns the target T1, rat mGluR5 receptor (Rattus norvegicus, UniProt P31424).
T1 construct: expressed in transfected cells
The experiment in a line: mGluR5 assay on HEK-expressing rat mGluR5 (fluorescent cell based Ca2+ mobilization assay). Conditions: for activation of rat mGluR5 receptors without co-addition of glutamate: HEK-rat mGluR5 cell line, no added glutamate or agonist. The protocol:
Positive functional expression of HEK-293 cells stably expressing rat mGluR5 receptor was determined by measuring intracellular Ca^2+ changes using a Fluorometric Imaging Plate Reader (FLIPR, Molecular Devices, Sunnyvale, Calif.) in response to glutamate or selective known mGluR5 agonists and antagonists. Rat mGluR5 RT-PCR products in HEK-293 cells were sequenced and found 100% identical to rat mGluR5 Genbank reference sequence (NM_017012). HEK-293 cells expressing rmGluR5 were maintained in media containing DMEM, dialyzed Fetal Bovine Serum (10%), Glutamax™ (2 mM), Penicillin (100 units/ml), Streptomycin (100 μg/ml), Geneticin (100 μg/ml) and Hygromycin-B (40 μg/ml) at 37° C./5% CO2.
After one day of incubation, cells were washed with assay buffer containing: 142 mM NaCl, 6 mM KCl, 1 mM Mg2SO4, 1 mM CaCl2, 20 mM HEPES, 1 g/L glucose, 0.125 mM sulfinpyrazone, pH 7.4. After 60 min of loading with 4 uM Fluo-4 (TefLabs, Austin, Tex.), the cells were washed three times with 50 μl of PBS Buffer and resuspended in […] of assay Buffer. The plates were then transferred to a Fluorometric Imaging Plate Reader (FLIPR, Molecular Devices, Sunnyvale, Calif.) for the assessment of intracellular calcium flux. After monitoring the baseline fluorescence for 10 seconds, increasing concentrations of representative compound (from 0.01 to 60 μM) of the present invention diluted in Assay Buffer (15 μl of 4× dilutions) was added to the cell. The final DMSO concentration in the assay was 0.3%. In each experiment, fluorescence was then monitored as a function of time for 3 minutes and the data analyzed using Microsoft Excel and GraphPad Prism. Each data point was also measured two times.
Under these experimental conditions, this HEK-rat mGluR5 cell line is able to directly detect positive allosteric modulators without the need of co-addition of glutamate or mGluR5 agonist.
The concentration-response curves of representative compounds of the present invention were generated using the Prism GraphPad software (Graph Pad Inc, San Diego, USA). The curves were fitted to a four-parameter logistic equation:
(Y=Bottom+(Top-Bottom)/(1+10̂((Log EC50−X)*Hill Slope)
allowing determination of EC50 values.
The Table 1 below represents the mean EC50 obtained from at least three independent experiments of selected molecules performed in duplicate.
On the technique in general: Calcium assays in cells follow changes in intracellular calcium, usually with a dye or a luminescent sensor.

Data set [1] deals with T2, mGluR5 (Rattus norvegicus, UniProt P31424).
T2 construct: positive allosteric modulators of mGluR5 receptors in native preparations; endogenous in cells; host or cells: primary cortical astrocytes from Sprague-Dawley rat embryos (E16-19)
Description: mGluR5 binding assay ([3H]-MPEP, rat brain membranes). Conditions: 3 nM [3H]-MPEP, rat cortical membranes, 1 h at 4° C.; read-out: IC50, inhibition of [3H]-MPEP binding. The text has this:
Activity of compounds of the invention was examined following a radioligand binding technique using whole rat brain and tritiated 2-methyl-6-(phenylethynyl)-pyridine ([^3H]-MPEP) as a ligand following similar methods than those described in Gasparini et al. (2002) Bioorg. Med. Chem. Lett. 12:407-409 and in Anderson et al. (2002) J. Pharmacol. Exp. Ther. 303 (3) 1044-1051.
Cortices were dissected out from brains of 200-300 g Sprague-Dawley rats (Charles River Laboratories, L'Arbresle, France). Tissues were homogenized in 10 volumes (vol/wt) of ice-cold 50 mM Hepes-NaOH (pH 7.4) using a Polytron disrupter (Kinematica A G, Luzern, Switzerland) and centrifuged for 30 min at 40,000 g. (4° C.). […] Protein concentration was determined by the Bradford method (Bio-Rad protein assay, Reinach, Switzerland) with bovine serum albumin as standard.
Membranes were thawed and resuspended in binding buffer containing 20 mM HEPES-NaOH, 3 mM MgCl2, 3 mM CaCl2, 100 mM NaCl, pH 7.4. […] Radioactivity was determined by liquid scintillation spectrometry using a 96-well plate reader (TopCount, Perkin-Elmer, Downers Grove, USA).
The inhibition curves were generated using the Prism GraphPad program (Graph Pad Software Inc, San Diego, USA). […] The mean of IC50 obtained from at least three independent experiments of selected molecules performed in duplicate were calculated.

Another data set concerns Male C57BL6/j mice. The experiment in a line: Amphetamine model of schizophrenia (amphetamine-induced locomotor activity). In kind it is in vivo. To be noted: 30 mg/kg ip, 120 min before amphetamine 3.0 mg/kg s.c., first 30 minutes of a 60 minute session. The text has this: Amphetamine-induced increases in locomotor ambulation are well known and are widely used as a model of the positive symptoms of schizophrenia. This model is based on evidence that amphetamine increases motor behaviors and can induce a psychotic state in humans (Yui et al. (2000) Ann. N.Y. Acad. Sci. 914:1-12). Further, it is well known that amphetamine-induced increases in locomotor activity are blocked by antipsychotics drugs that are effective in the treatment of schizophrenia (Arnt (1995) Eur. J. Pharmacol. 283:55-62).
Subjects: The present studies were performed in accordance with the animal care and use policies of Addex Pharmaceuticals and the laws and directives of Switzerland governing the care and use of animals. Male C57BL6/j mice (20-30 g) 7 weeks of age at the time of delivery were group housed in a temperature and humidity controlled facility on a 12 hour light/dark cycle for at least 7 days before use. Mice had access to food and water ad libitum except during locomotor activity experiments.
Assessment of locomotor (ambulatory) activity: The effects of compounds on amphetamine-induced locomotor activation in mice were tested. […] Locomotor activity (ambulations) was monitored by a videotracking system (VideoTrack, Viewpoint, Champagne au Mont d'Or, France) that recorded the ambulatory movements of mice. […] On test days, test compounds (10, 30, 50 or 100 mg/kg i.p. (intraperitoneal)) or vehicle were administered 120 minutes before amphetamine (3.0 mg/kg s.c.) or saline injection: Mice were placed into the locomotor boxes immediately after amphetamine or saline vehicle injection and their locomotor activity, defined as the distance traveled in centimeters (cm), was measured for 60 minutes.
Compound administration: The test compound was dissolved in a 5% DMSO/20% Tween 80/75% saline vehicle and administered in a volume of 10 ml/kg. […] D-amphetamine sulfate (Amino A G, Neuenhof, Switzerland) was dissolved in saline and administered at a dose of 3.0 mg/kg s.c. (expressed as the base) in a volume of 10 ml/kg. […]

Data set [2] has as its target T2, mGluR5. Conditions: Liu et al (2006), Zhang et al (2005); cited from earlier work.

T1 sequence (P31424 21-1171 isoform P31424-2 limits assumed): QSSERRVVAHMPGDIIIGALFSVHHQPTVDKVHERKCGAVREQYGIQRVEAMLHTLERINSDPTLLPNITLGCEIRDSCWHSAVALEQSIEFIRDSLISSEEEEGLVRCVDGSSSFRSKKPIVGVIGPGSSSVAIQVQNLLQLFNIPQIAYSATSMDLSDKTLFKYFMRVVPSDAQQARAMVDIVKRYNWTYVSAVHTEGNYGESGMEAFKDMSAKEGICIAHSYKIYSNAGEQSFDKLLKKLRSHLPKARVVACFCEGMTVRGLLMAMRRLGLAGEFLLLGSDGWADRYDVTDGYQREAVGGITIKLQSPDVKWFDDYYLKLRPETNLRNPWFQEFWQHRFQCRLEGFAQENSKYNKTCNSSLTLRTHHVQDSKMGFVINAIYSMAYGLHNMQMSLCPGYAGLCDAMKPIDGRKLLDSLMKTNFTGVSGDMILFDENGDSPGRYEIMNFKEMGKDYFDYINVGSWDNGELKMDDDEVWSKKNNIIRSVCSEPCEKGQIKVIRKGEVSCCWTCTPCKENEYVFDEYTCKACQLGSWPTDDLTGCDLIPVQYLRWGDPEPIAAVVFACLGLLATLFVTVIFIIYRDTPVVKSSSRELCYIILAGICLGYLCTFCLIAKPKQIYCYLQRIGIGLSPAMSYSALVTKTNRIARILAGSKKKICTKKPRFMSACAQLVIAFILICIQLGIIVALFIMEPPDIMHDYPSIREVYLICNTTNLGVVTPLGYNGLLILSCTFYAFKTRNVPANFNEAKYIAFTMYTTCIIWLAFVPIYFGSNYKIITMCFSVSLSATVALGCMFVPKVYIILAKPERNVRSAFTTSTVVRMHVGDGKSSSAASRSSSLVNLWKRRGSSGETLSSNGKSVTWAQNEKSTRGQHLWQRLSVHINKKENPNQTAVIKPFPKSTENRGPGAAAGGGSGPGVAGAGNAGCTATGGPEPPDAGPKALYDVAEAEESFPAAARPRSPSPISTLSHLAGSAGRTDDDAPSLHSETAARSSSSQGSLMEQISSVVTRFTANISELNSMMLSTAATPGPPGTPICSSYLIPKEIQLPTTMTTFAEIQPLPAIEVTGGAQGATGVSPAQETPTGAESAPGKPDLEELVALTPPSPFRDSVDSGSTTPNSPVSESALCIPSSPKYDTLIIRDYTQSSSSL
T2 sequence (P31424 21-1203): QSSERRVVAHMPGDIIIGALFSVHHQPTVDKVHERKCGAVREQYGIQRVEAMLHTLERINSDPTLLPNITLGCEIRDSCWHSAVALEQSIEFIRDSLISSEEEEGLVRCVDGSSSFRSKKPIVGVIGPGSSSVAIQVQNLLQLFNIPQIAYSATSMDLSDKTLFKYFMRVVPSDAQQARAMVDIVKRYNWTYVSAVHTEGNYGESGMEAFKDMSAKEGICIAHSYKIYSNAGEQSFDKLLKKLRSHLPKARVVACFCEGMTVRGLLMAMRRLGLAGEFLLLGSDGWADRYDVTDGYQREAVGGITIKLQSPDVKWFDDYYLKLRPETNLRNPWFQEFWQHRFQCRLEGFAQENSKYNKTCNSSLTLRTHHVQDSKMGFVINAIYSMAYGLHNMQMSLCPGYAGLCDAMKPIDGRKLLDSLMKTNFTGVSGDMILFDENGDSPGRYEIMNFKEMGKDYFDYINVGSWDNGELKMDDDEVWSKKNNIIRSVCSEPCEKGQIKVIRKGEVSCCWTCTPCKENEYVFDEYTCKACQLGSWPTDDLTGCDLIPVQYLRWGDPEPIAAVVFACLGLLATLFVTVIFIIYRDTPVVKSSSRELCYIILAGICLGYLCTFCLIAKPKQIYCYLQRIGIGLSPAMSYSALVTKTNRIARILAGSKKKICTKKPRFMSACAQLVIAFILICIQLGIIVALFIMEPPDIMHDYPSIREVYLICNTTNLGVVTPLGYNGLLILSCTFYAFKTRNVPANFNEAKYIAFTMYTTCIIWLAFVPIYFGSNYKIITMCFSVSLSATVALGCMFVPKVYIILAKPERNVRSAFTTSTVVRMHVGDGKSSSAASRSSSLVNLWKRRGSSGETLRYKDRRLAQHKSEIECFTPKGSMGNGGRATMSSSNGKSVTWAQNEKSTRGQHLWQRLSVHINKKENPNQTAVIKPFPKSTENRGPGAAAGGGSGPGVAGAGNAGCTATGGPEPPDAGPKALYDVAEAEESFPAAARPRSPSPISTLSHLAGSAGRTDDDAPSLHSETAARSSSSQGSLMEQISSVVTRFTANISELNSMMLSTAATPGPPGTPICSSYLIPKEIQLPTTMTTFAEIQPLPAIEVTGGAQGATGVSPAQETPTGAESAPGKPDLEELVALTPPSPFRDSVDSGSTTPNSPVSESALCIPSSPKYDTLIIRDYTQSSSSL

The EC50 is the midpoint of the concentration-response curve. Broadly, the IC50 is the concentration that gives 50% inhibition. For orientation: melting point means the temperature of the solid-liquid transition. As for `O=C(c1ccc(F)cc1)N1CCC[C@H](c2noc(-c3ccc(F)cc3)n2)C1` [Example 1, (4-Fluoro-phenyl)-{(S)-3-[5-(4-fluoro-phenyl)-[1,2,4]oxadiazol-3-yl]-piperidin-1-yl}-methanone], the melting point is 157 to 160 °C. Besides, the EC50 at rat mGluR5 receptor (HEK-293 cells stably expressing rat mGluR5, no co-addition of glutamate, mean of at least three independent experiments in duplicate, read-out: Ca++ Flux (mean EC50)) is less than 1 µM. At mGluR5 [1], the IC50 is less than 30 µM. Moreover, the “increase in locomotor activity induced by amphetamine” value (from here on “increase”) in the data set on Male C57BL6/j mice was “significantly attenuated”. In the data set on Male C57BL6/j mice (listed as compound # 1), the “increase” value is “significantly attenuated”. For the same molecule, the “increase” value in the data set on Male C57BL6/j mice (listed as example #1) is recorded as “significantly attenuate”.

Take `O=C(Nc1ccc(Cl)cc1CN1C(=O)c2ccccc2C1=O)c1ccccc1O` [CPPHA, reference compound]: the “activation of rat mGluR5 receptors without co-addition of glutamate” value on rat mGluR5 receptor is listed as “activating”. In addition, on mGluR5 [2], the “activity in rat cortical astrocytes culture in the absence of added glutamate” value was “inactive”.

As to `Fc1cccc(/C=N/N=C/c2cccc(F)c2)c1` [DFB, reference compound], the “activation of rat mGluR5 receptors without co-addition of glutamate” value at rat mGluR5 receptor is “activating”. Also, at mGluR5 [2], the “activity in rat cortical astrocytes culture in the absence of added glutamate” value is “inactive”.

(Values after US20090215822A1, “Substituted Oxadiazole Derivatives as Positive Allosteric Modulators of Metabotropic Glutamate Receptors” (NIKEM RESEARCH SRL, priority 2005, published 2009).)
